Series [1] deals with MRSA biofilm. In words: Biofilm inhibition assay (crystal violet). The series is classed as cell-based, S. aureus. To be noted: 512 μg/mL free streptomycin, 24 h. As to the method:
(§1) Biofilm inhibition assays. Exponentially growing bacteria were inoculated into 96 well plates (1×10^4 cell/well) containing MHB broth with 2% (v/w) glucose, incubated under stationary conditions at 37° C. for one day. After biofilm formation, the media was discarded and the plates were washed with PBS to remove the planktonic bacteria. Fresh NMB broth containing serially diluted free streptomycin or PDC were added to the plates and incubated at 37° C. for another 24 h. The media in each well was then removed, and the plates were washed carefully with PBS for 1 time. The biofilm in each well was fixed with 95% ethanol for 15 min and stained with 0.1% crystal violet for 15 min. After washing with Milli-Q water for three times, 33% v/v acetic acid (100 μL/well) was added to solubilize the crystal violet staining. OD 560 in each well was read to determine the biofilm formation. The biofilm formed as described above was also stained with acridine orange and Cy5 labeled PDC, and monitored by CLSM to observe the PDC penetration.

The test system of series [2] is E. coli ATCC 25922. In words: Evaluation of antibiotic resistance development (serial passaging). The series is classed as cell-based. To be noted: sub-lethal dose (0.5 MIC). As to the method: Evaluation of antibiotic resistance development. E. coli ATCC 25922 was employed to study the drug resistance development under sublethal dose treatments of free streptomycin, cationic polymer or the PDC. During a serial of passages, the MIC of each treatment was measured by the broth microdilution method as described above, and the bacteria were exposed to ½MIC at that particular passage. MIC for each passage was recorded and normalized to that of the first passage to determine the drug resistance enhancement.

Series [3] relates to P. aeruginosa in Raw 264.7 macrophage. In words: Antibacterial activity for intracellular infection. The series is classed as cell-based. To be noted: Raw 264.7 infected with P. aeruginosa, pH 7.4 and 6.0, 1 day. As to the method: Antibacterial activity for intracellular infection. The antibacterial activity for intracellular infection was tested following the previous report. Briefly, macrophage Raw 264.7 cells were seeded in 96-well plate at a density of 1×10^4 cell/swell overnight and infected with MRSA or P. aeruginosa at a ratio of 10-20 bacteria per macrophage in FBS free RPMI 1640 medium. After 3 h incubation, the cells were washed and cultured in 1640 medium containing 10% FBS and 50 μg/mL gentamycin for one day to prevent the growth of extracellular bacteria. Then the macrophages were treated with free streptomycin or PDC for another day and lysed with Milli-Q water supplemented with 0.1% Triton-X. The cell lysates were serially diluted and the CFU in each well was determined by plating on MHB agar plates.

Series [4] relates to E. coli ATCC 25922. In words: Live/Dead bacterial staining assay (AO/EB). The format is cell-based. To be noted: 0.5 h and 3 h. As to the method: Live/Dead bacterial staining assay. Exponentially growing bacteria (E. coli ATCC 25922) were collected by centrifugation at 8000 rpm for 5 min, washed with saline and diluted to OD 600 value of 0.5. The bacterial suspensions were incubated with different treatments at 37° C. for 0.5 h and 3 h, and then washed with saline and stained by acridine orange (10 μg/mL) and ethidium bromide (EB, […]) solution for 15 min. Afterward, the bacteria were collected via centrifugation, washed with saline for 2 times, resuspended in 70% glycerol and spread on glass slides. The live/dead bacteria were observed by a confocal laser scanning microscope (CLSM).

In series [5] the test system is P. aeruginosa ATCC 27853. In words: Mouse lung infection model. The format is in vivo, ICR mice. To be noted: 2 i.v. injections (1 h and 8 h after the infection). As to the method:
Mouse lung infection model. […] In another experiment of monitoring the mice survival for the lung infection model, the P. aeruginosa infected mice were given 2 treatments (1 h and 8 h after the infection) and their survival was observed using Kaplan-Meier curves (n=5).

The subject of series [6] is P. aeruginosa (ATCC 27853). As to the kind of experiment: MIC, broth microdilution. The series is classed as cell-based. To be noted: 24 h, no pH given. As to the method: (§2) Bacterial strains. S. aureus Newman was kindly provided by Prof Douglas Weibel; E. coli ATCC25922, S. aureus ATCC 33591 and P. aeruginosa ATCC 27853 were kindly donated by Prof. David Andes. E. coli DH5a was purchased from Thermo Fisher. The bacteria above were grown in Mueller Hinton Broth (MHB) media (Criterion, Santa Maria, Calif., USA). M. smegmatis mc^2155 strain was kindly donated by Prof. Adel M. Talaat, and was grown in Middlebrook 7H9 broth (HiMedia, West Chester, Pa., USA).
(§3) Minimal inhibitory concentration (MIC) measurements. The MIC of the different treatments on various bacteria strains was determined using the broth microdilution method. Briefly, 100 μL of the respective broth media containing serial twofold dilutions of each compound was placed into a 96-well tissue culture plate. Each bacterial strain was taken from an exponentially growing culture and diluted to 5×10^6 CFU/mL. 10 μL of such microbial suspension was inoculated in each well of the plate, resulting in a final bacteria concentration of approximately 5×10^5 CFU/mL. The bacteria were cultured at 37° C. for 24 h and their growth were observed by reading the optical density (OD) at 600 nm. The MIC was determined as the treatment concentration at which no microbial growth was observed. Broth containing microbial cells alone was used as a positive control and broth without bacteria inoculation was used as a negative control. Each test was carried out in 3 replicates.

The subject of series [7] is M. smegmatis (MC^2 155). In words: MIC, broth microdilution. The format is cell-based. To be noted: 24 h, no pH given. As to the method: as §2, §3
Series [8] has as its system S. aureus (MRSA ATCC33591). As to the kind of experiment: MIC, broth microdilution. The format is cell-based. To be noted: 24 h, no pH given. As to the method: as §2, §3
Series [9] deals with S. aureus (Newman). In words: MIC, broth microdilution. The format is cell-based. To be noted: 24 h, no pH given. As to the method:
as §2, §3

Series [10] concerns E. coli (ATCC 25922). As to the kind of experiment: MIC, broth microdilution. The series is classed as cell-based. To be noted: 24 h, no pH given. As to the method: as §2, §3
Series [11] concerns E. coli (DH5 alpha). As to the kind of experiment: MIC, broth microdilution. The series is classed as cell-based. To be noted: 24 h, no pH given. As to the method: as §2, §3
For series [12], the system named is P. aeruginosa biofilm. In words: Biofilm inhibition assay (crystal violet). The format is cell-based. To be noted: 256 μg/mL streptomycin. As to the method: as §1
The subject of series [13] is E. coli biofilm. In words: Biofilm inhibition assay (crystal violet). The format is cell-based. To be noted: 512 μg/mL free streptomycin, 24 h. As to the method:
as §1

Series [14] has as its system human red blood cells. In words: Hemolysis assay. The format is cell-based. As to the method:
Hemolysis assay. […] The antibacterial polymer and PDC with different charges were serial diluted with PBS and placed in 96-well plates (100 μL/well). The blood cell suspension (10 μL/well) was added into the wells and incubated at 37° C. for 1 h to allow the complete hemolysis process. […] Following centrifugation at 3000 rpm for 7 min, the supernatant (70 μL/well) was transferred to another clean 96-well plate. OD 560 in each well was monitored by a microplate reader, and hemolysis was calculated using the following formula: […]

Series [15] concerns broad spectrum of microbes. As to the kind of experiment: MIC, broth microdilution, across the strains tested. The series is classed as cell-based. To be noted: E. coli, MRSA, P. aeruginosa (FIGS. 3G-I). As to the method:
as §2
as §3, with “Broth containing microbial cells alone was used as a positive control and broth without bacteria inoculation was used as a negative control. Each test was carried out in 3 replicates.” left out

In series [16] the test system is HEK 293 human embryonic kidney cells. In words: Cell viability test (MTT cytotoxicity). The series is classed as cell-based. To be noted: 48 h, no pH given. As to the method: Cell viability test. Cytotoxicity of different components was tested through MTT assays. HEK 293 human embryonic kidney cells were seeded onto a 96-well plate (1×10^4 cells/well) and cultured overnight. The cells were then treated with various polymers or PDCs with serial dilutions for 48 h and their viability was measured by a standard MTT assay. Data were collected by monitoring the difference between the absorbance at 560 nm and 650 nm using a GloMax-Multi Microplate Multimode Reader (Promega, Wis., USA).

≈ marks a conversion by molar mass, not a printed value.

For `[H]/N=C(/N)N[C@H]1[C@H](O)[C@@H](O)[C@H](O[C@@H]2O[C@@H](C)[C@](O)(C=O)[C@H]2O[C@@H]2O[C@@H](CO)[C@H](O)[C@@H](O)[C@@H]2NC)[C@@H](N/C(N)=N\[H])[C@@H]1O` [Streptomycin, streptomycin, reference compound], the biofilm remaining result in series [1] and in series [13] was “more than 50%” each time. Moreover, the “increase in MIC after 20 passages” value in series [2] is recorded as 10 fold. In series [3], the “antibacterial efficacy on intracellular bacteria (CFU), in words” value is on record as “did not show much therapeutic efficacy”. Moreover, the “bactericidal effect / EB staining, in words” value in [4] was “little EB infiltration at 3 h”. In addition, in series [5], the “mice rescued (survival)” value was 40%. The MIC came out at 16 µg/mL (≈ 27.5 µM) in series [6] (Pseudomonas aeruginosa, ATCC27853); 0.5 µg/mL (≈ 0.86 µM) in [7] (Mycolicibacterium smegmatis, MC^2155); 16 µg/mL (≈ 27.5 µM) in series [8] (Staphylococcus aureus); 16 µg/mL (≈ 27.5 µM) in series [9] (Staphylococcus aureus, NEWMAN); 8 µg/mL (≈ 13.8 µM) in [10] (Escherichia coli, ATCC25922); 8 µg/mL (≈ 13.8 µM) in series [11] (Escherichia coli). Besides, in series [12], the “biofilm reduced / removed” value came out at 75%.

Regarding “Hex-Cys-Cys-DET-DMA [Neutralized polymer]”, in [14], the “hemolytic activity, in words” value is recorded as “did not show any hemolytic activity”.

For “Hex-Cys-Cys-DET-strep [Positively-charged PDC]”, the “effect of pH (6.0 vs 7.4) on MIC, in words” value in series [15] is listed as “MICs were unaffected by pH variation”. Moreover, the “HEK293 IC50” value in series [16] is more than 2000 µg/mL. Besides, in [6], the “MIC P. aeruginosa (ATCC 27853)” value is 20 µg/mL. Moreover, the “MIC M. smegmatis (MC^2 155)” value in series [7] came to 1.25 µg/mL. Besides, the “MIC S. aureus (MRSA ATCC33591)” value in series [8] was 20 µg/mL. In series [9], the “MIC S. aureus (Newman)” value came out at 10 µg/mL. In [10], the “MIC E. coli (ATCC 25922)” value is 20 µg/mL. In addition, in series [11], the “MIC E. coli (DH5 alpha)” value stood at 20 µg/mL.

With “Hex-Cys-Cys-DET2 polymer [Positively-charged polymer]”, the “hemolytic activity, in words” value in series [14] is listed as “only induced hemolysis at a high level of 10 mg/mL”.
